Experimental data reported in patent US11439623B2, “Method of modulating ribonucleotide reductase” (CASE WESTERN RESERVE UNIVERSITY, priority 2017, dated 2022).
Values joined by “and” are separate entries in the source; they are usually repeats but may differ in a detail not shown here. Equal entries are not always repeated. Where two headings read alike, the source gives them in different places.

Columns and labels:
[1] = test system: human pancreas ductal adenocarcinoma Panc cells (Panc1); experiment: Cancer cell line growth inhibition assay (DNA content); type: cell-based; settings: for Cellular IC50s Panc 1: Table 1, triazole derivatives, one cell printed for both cell lines; for activity in cell growth inhibition: Panc1, statement in text
Experimental: (§1) The growth inhibition assay was performed in the Preclinical Drug Testing Laboratory of the Case Comprehensive Cancer Center using a standardized protocol. Cell lines (human colon cancer HCT116 and human pancreas ductal adenocarcinoma Panc cells) were maintained in standard growth media; RPMI1640+10% FBS+2 mM glutamine+100 U/ml penicillin, 100 ug/ml streptomycin and shown to be negative for mycoplasma contamination using the MycoAlert™ Mycoplasma Detection kit (Lonza, Basel, Switzerland). Cell identity was verified by Short Tandem Repeat (STR) testing performed using the Promega StemElite kit, in the Genetic Resources Core Facility (GRCF) at Johns Hopkins University.
(§2) For growth inhibition assays, cells were harvested by trypsinization and seeded into 96-well tissue culture plates at 2500 cells/mL. The following day an equal volume of 2×-drug containing medium was added to each well. The cells were cultured for 3 additional days at 37° C. in a 5% CO2 humidified incubator. Cell growth was assessed by measuring DNA content per well using the method of Labarca and Paigen. Dye fluorescence was measured in a Perkin-Elmer 1420 Victor 3 Multilabel plate reader using 355 nm excitation and 460 nm emission.

[2] = test system: human colon cancer HCT116; experiment: as above; type: cell-based; settings: for IC50: HCT-116; for Cellular IC50s HCT-116: Table 1, triazole derivatives, one cell printed for both cell lines; for activity in cell growth inhibition: HCT116, statement in text
Experimental: as §1, §2

[3] = test system: normal mobilized peripheral blood progenitor cells; settings: previously characterized; cited from earlier work
hRRM1 hexamers = target: T1, hRRM1 hexamers (Homo sapiens, UniProt P23921); settings: background statement; cited from earlier work
T1 sequence (P23921 1-792): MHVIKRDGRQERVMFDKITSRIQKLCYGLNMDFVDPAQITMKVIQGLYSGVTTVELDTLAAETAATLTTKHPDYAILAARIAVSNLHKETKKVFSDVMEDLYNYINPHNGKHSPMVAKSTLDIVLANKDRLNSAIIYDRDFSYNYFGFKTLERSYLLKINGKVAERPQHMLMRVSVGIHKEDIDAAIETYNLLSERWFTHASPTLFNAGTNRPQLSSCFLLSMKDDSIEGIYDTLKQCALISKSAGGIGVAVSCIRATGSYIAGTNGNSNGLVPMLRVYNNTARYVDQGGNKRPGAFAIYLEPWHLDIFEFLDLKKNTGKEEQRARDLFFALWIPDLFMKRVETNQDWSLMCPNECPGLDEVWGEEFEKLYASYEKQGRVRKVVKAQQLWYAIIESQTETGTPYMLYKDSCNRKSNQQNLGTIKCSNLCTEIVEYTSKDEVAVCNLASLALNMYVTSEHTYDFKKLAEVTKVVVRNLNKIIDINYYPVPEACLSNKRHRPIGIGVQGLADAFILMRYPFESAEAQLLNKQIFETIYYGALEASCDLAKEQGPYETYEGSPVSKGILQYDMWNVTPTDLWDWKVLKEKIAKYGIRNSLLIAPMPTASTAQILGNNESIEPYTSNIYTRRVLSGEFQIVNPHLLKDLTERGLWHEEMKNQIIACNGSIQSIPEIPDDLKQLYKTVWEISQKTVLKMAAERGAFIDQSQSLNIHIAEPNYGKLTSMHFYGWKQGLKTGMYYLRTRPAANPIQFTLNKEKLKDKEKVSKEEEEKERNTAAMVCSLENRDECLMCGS

[4] = Homo sapiens, PANC-1, Panc1, Calcusyn fit, runs Oct. 21 and Oct. 24, 2016, read-out: Dm
[5] = Homo sapiens, Calcusyn fit, runs Oct. 21 and Oct. 24, 2016, read-out: Dm
[6] = Homo sapiens, PANC-1, Table 2, oxadiazoles, read-out: Cellular IC50s Panc 1
[7] = Homo sapiens, Table 2, oxadiazoles, read-out: Cellular IC50s HCT-116

Structure (SMILES)	IC50 [1, 4] [nM]	IC50 [2, 5] [nM]	Cellular IC50s Panc 1 [1]	Cellular IC50s HCT-116 [2]	further results
O=C(c1c(O)ccc2ccccc12)n1cc(-c2cccnc2)nn1 [NSAAT F]	> 10000	> 10000			
Cc1c(-n2cc(-c3c(O)ccc4ccccc34)nn2)c(=O)n(-c2ccccc2)n1C			No cytotoxicity	No cytotoxicity	
Oc1ccc2ccccc2c1-c1nnc(-c2cccnc2)o1 [Oxa F]	1920	1410			IC50 [1, 6]: 2500 nM; activity in cell growth inhibition [1]: low micromolar range; activity in cell growth inhibition [2]: low micromolar range; IC50 [2, 7]: 1200 nM
O=C(O)CC(c1ccccc1)n1cc(-c2c(O)ccc3ccccc23)nn1 (stereo not drawn)			No cytotoxicity	No cytotoxicity	
O=C(NN=Cc1c(O)ccc2ccccc12)c1ccccc1O [NSAAH, Naphthyl Salicyl Acyl Hydrazone, reference compound]					IC50 ([1]; Panc1, Calcusyn fit, runs Oct. 21 and Oct. 24, 2016, listed as NSAAH (new), read-out: Dm): 850 nM; IC50 ([1]; Panc1, Calcusyn fit, runs Oct. 21 and Oct. 24, 2016, listed as NSAAH (old), read-out: Dm): 550 nM and 480 nM; IC50 ([2]; Calcusyn fit, runs Oct. 21 and Oct. 24, 2016, listed as NSAAH (new), read-out: Dm): 176 nM; IC50 ([2]; Calcusyn fit, runs Oct. 21 and Oct. 24, 2016, listed as NSAAH (old), read-out: Dm): 234 nM and 166 nM; cytotoxicity [3]: little measurable cytotoxicity
COc1ccc2cc(-c3cn(Cc4ccccc4)nn3)ccc2c1			No cytotoxicity	No cytotoxicity	
O=C(c1c(O)ccc2ccccc12)n1cc(-c2cccnc2)nn1 [drawing 60]			No cytotoxicity	No cytotoxicity	
NC1(c2cn([C@H](c3ccccc3)[C@H](O)c3ccccc3)nn2)CCCCC1 [drawing 59]			No cytotoxicity	No cytotoxicity	
COc1ccc2cc(-c3cn(CCc4ccc(O)cc4)nn3)ccc2c1			No cytotoxicity	No cytotoxicity	
Oc1ccccc1-c1nnc(-c2c(O)ccc3ccccc23)o1 [Oxa A]	53600	6890			IC50 [1, 6]: 7000 nM; activity in cell growth inhibition [1]: low micromolar range; activity in cell growth inhibition [2]: low micromolar range; IC50 [2, 7]: 3200 nM
C[C@@H]([C@H](O)c1ccccc1)n1cc(-c2c(O)ccc3ccccc23)nn1			No cytotoxicity	No cytotoxicity	
Nc1nc(Cl)nc2c1ncn2[C@@H]1O[C@H](CO)[C@@H](O)[C@@H]1F [clofarabine, 2′-fluro-2′-deoxyarabinofuranosyl-2-chloroadenine]					binding affinity (hRRM1 hexamers): nanomolar affinity
NC1(c2cn([C@H](c3ccccc3)[C@H](O)c3ccccc3)nn2)CCCCC1 [NSAAT E]	> 10000	66800			
